Assay: physchem
Type: physicochemical
Details: 10% (100,000 ppm) dissolved in water at 40°C, left at 4°C; ERG precipitated 1 day later; read-out: concentration at which ERG could be contained in water
Procedure: ERG was dissolved in water at 40°C so that the ergothioneine concentration became 10% (100,000 ppm), and then left to stand at 4°C. When the solution was checked 1 day later, ERG was precipitated. From the above, the concentration at which ERG could be contained in water was less than 10%.

## C[N+](C)(C)[C@@H](Cc1c[nH]c(=S)[nH]1)C(=O)[O-] [ERG, Ergothioneine]
  solubility at 24 h: < 100 mg/mL
